From US20040115289A1, “Cosmetic or medicinal composition containing sesquiterpene lactone or the like for treating hair -growth related disorders, and preparation method” (priority 2000, published 2004) come the findings set out here.

Assay [1] deals with hairs in the telogenic phase. Nature of the assay: Test on the rabbit: hair growth after topical application. Type of assay: in vivo. The following applies: 1% solution in the same excipient as the Arnica montana extract. The method, then: Male rabbits aged at least 12 weeks and identical in age, in order for the hairs of these animals to be in the telogenic phase, which can be confirmed by shearing the animals, are used.
The test products are dissolved in pure ethanol in the proportion of a concentration of 25% (w/v). This solution is then diluted 1/10 with sweet almond oil. A concentration of active product of 2.5% is then obtained.
0.2 ml of these solutions are deposited on a gauze applied to the skin and a control, obtained by preparing the same solvent as that which was used to dissolve the active principles, is also deposited. The products and the control are left in contact with the skin for 15 minutes and then the gauze is removed. The treatment is carried out for 2 days at the rate of three applications per day at intervals of four hours.
The difference between the mean time taken by the hairs to grow on the treated parts and the control parts is subsequently evaluated.
(§1) A solution comprising 1% of pure commercial parthenolide (Aldrich, ref. 38,428-3) and a solution comprising 1% of pure commercial cnicin (Extrasynthese, ref. 8725) are prepared in the same excipient as the Arnica montana extract and are subjected to the test on the rabbit.

A further assay deals with hairs of C57/B16 mouse. As to the kind of experiment: Tests on the C57/B16 mouse: hair growth after topical application. Type of assay: in vivo. The following applies: section on the C57/B16 mouse; 1% solution in the same excipient as the Arnica montana extract. As for the experimental part: Female mice aged 5 weeks, all identical, are used. The mice are […] on the back, so as to render the hairs unnoticeable.
0.2 ml of one of each product in the same solvent as for the test on the rabbits and at the same concentration is deposited on the backs of the mice.
A test is thus carried out by comparison between different mice, in contrast to the test on the rabbit, where the same animal represents its own control.
The product is deposited on the back, without using gauze, once daily for 5 days in a row. […] They become visible on the second day of treatment to reach approximately 1 mm from the third day, whereas the hairs begin to grow on the control mice only from the third week after the beginning of the treatment.
as §1

Regarding `C=C1C(=O)O[C@@H]2/C=C(\CO)CC/C=C(\C)C[C@H](OC(=O)C(=C)[C@@H](O)CO)[C@@H]12` [cnicin], the “growth of the hairs compared with the Arnica extract” value in assay [1] is given as “approximately two times worse”. Also, in the assay on hairs of C57/B16 mouse, the “growth of the hairs compared with the 2.5% Arnica extract” value is listed as “approximately two times worse”.
